Results: patent US20220267258A1, “ROBENIDINE ANALOGS AS POTENT ANTIMALARIALS AGAINST DRUG-RESISTANT PLASMODIUM FALCIPARUM” (OREGON HEALTH & SCIENCE UNIVERSITY, priority 2021, published 2022)
Read-outs that look alike come from different tables or passages of the source.

Columns and labels:
P. falciparum = P. falciparum in vitro, in words; cited from earlier work
T. brucei = conditions: read-out: in vitro IC50; cited from earlier work
T. cuzi = conditions: read-out: in vitro IC50; cited from earlier work
Leishmania donovani = conditions: read-out: in vitro IC50; cited from earlier work
Plasmodium yoelii = assay: modified 4-day Peters test, murine malaria; assay type: in vivo, mice; conditions: for cure in this model: 4-day oral dosing, 0% parasitemia at day 30; for P. yoelii ED90 / P. yoelii ED50: oral gavage days 1-4, parasitemia day 5; for P. yoelii NRD (non-recrudescence dose, cure dose): oral, doses up to 25 mg/kg/day, no parasites at day 30
Procedure: In this modified 4-day Peters test,^41 mice were inoculated with parasites from a donor mouse (day 0), and then dosed orally with drugs on each of the subsequent four days (days 1-4). On day 5 of the experiment, the parasitemia for each mouse was determined microscopically by examining methanol-fixed and Giemsa-stained blood smears. The ED50 represents the interpolated dose of a compound at which parasitemia was suppressed to one half that of untreated controls. Similarly, the ED90 represents the dose at which parasitemia is suppressed ten-fold. Mice were considered cured of their infection if no parasites were detected in the blood 30 days from the first drug administration, and the non-recrudescence dose (NRD) represents the lowest dose to achieve a cure.
The in vivo ED50 and ED90 of selected aminoguanidines was measured using a modified 4-day Peters test. Female CF1 mice from Charles River Laboratories were inoculated intravenously with approximately 2.5-5.0×10^4 parasitized erythrocytes (murine malaria P. yoelii, Kenya strain MR4 MRA-428) from a donor mouse (experiment day zero). On the following four days (experiment days 1-4), solutions of the test compounds in PEG-300 (or PEG-300 only for control mice) were administered by oral gavage once daily. […] Parasitemia of each mouse was determined by microscopic examination of Giemsa stained blood smears on day 5. ED50 and ED90 values were assessed by generating dose-response curves relative to untreated controls using Graphpad Prism (v. 8). Mice were considered cured of malarial infection if they maintained 0% parasitemia at experiment day 30. The procedures involved, together with all matters relating to the care, handling, and housing of the animals used in this study, were approved by the Portland VA Medical Center Institutional Animal Care and Use Committee.

P. falciparum A6 = assay: SYBR Green growth inhibition assay, P. falciparum A6; assay type: cell-based, Plasmodium falciparum; conditions: read-out: IC50 A6
Procedure: (§1) In addition to the drug-sensitive P. falciparum D6 strain, the aminoguanidines were assessed against three drug-resistant strains (Tables 1-3).
(§2) The following parasite strains were used in this study and obtained through BEI Resources, NIAID, NIH. […] The culture medium used was RPMI-1640, supplemented with 25 mM HEPES buffer, 25 mg/L gentamicin sulfate, 45 mg/L hypoxanthine, 10 mM glucose, 2 mM glutamine, and 0.5% Albumax II (complete medium).^43 Cultures were maintained in a standard low oxygen atmosphere (5% O2, 5% CO2, 90% N2) in an environmental chamber and incubated at 37° C. Cultures were sub-passaged every 3-4 days into a fresh culture flask containing complete media and erythrocytes.
(§3) The aminoguanidine series was assessed for in vitro antiplasmodial activity using the fluorescence-based SYBR Green assay described previously by Smilkstein and co-workers.^38 Compounds were evaluated in quadruplicate in flat-bottomed Costar clear 96-well plates (Model #3585). A two-fold serial dilution of each compound was performed across the columns of the test plates starting with 20 μM and ending with a final untreated column to serve as control wells. Asynchronous parasite infected erythrocytes in growth media were added to each well for a total volume of 100 μL, final hematocrit of 2%, and initial parasitemia of 0.2%. The commercial malaria drugs atovaquone and chloroquine were used as control drugs. Test plates were incubated for 72 hr at 37° C. in an environmental chamber with a controlled low oxygen atmosphere (5% O2, 5% CO2, 90% N2). After the incubation period, 100 μL SYBR Green I dye-detergent solution was added to each well, and the plates were incubated at ambient temperature and atmosphere in the dark for at least one hour. Fluorescence was read at 497 nm excitation and 520 nm emission bands using a Spectramax iD3 plate reader. Fluorescence readings were normalized with respect to the untreated control wells representing normal parasite growth and plotted against the logarithm of drug concentration.

P. falciparum Tm90-C2B = assay: SYBR Green growth inhibition assay, P. falciparum Tm90-C2B; assay type: cell-based, Plasmodium falciparum; conditions: read-out: IC50 Tm90-C2B
Procedure: as §1, §2, §3

[1] = system: human hepatoma derived HepG2 cells; assay: HepG2 cytotoxicity assay (resazurin); assay type: cell-based; conditions: for IC50: HepG2, 24 hr drug, 24 hr recovery
Procedure: (§4) In this assay, HepG2 cells were incubated with test compounds for 24 hours, followed by a 24-hour recovery period and subsequent staining to evaluate for cytotoxic effects with resazurin. The ratio of the resulting HepG2 IC50 value to the P. falciparum D6 IC50 value can be considered an ‘in vitro therapeutic index,’ or IVTI.
(§5) Compounds were prepared as 10 mM stock solutions in DMSO. […] HepG2 cells were added to each well of flat bottom 96-well tissue culture plates at an initial density of 2×10^4 cells per well, and an initial volume of 160 μL complete medium per well. After an overnight incubation at 37° C. to adhere the cells to the culture plates, 40 μL drug solutions in complete medium were applied to each well at a final concentration range of 0 to 200 μM across each plate. Drugs were tested in triplicate or quadruplicate. The cells were incubated for 24 hours at 37° C. and 5% CO2 with the drug solutions, which were then aspirated and replaced with 200 μL per well of complete medium for an additional 24 hour incubation under the same conditions. To each well was added 20 μL of resazurin (Alamar Blue) in PBS buffer to a final concentration of 10 μM, and the plates were incubated for 3 hours. Fluorescence was measured at 560 nm excitation and 590 nm emission bands using a Spectramax iD3 plate reader. Fluorescence readings were normalized with respect to the untreated control wells and plotted against the logarithm of drug concentration.

P. falciparum Dd2 = assay: SYBR Green growth inhibition assay, P. falciparum Dd2; assay type: cell-based, Plasmodium falciparum; conditions: read-out: IC50 Dd2
Procedure: as §1, §2, §3

P. falciparum strain D6 = assay: SYBR Green growth inhibition assay, P. falciparum D6; assay type: cell-based, Plasmodium falciparum; conditions: read-out: IC50 D6
Procedure: (§6) The in vitro activity of each compound in the aminoguanidine library was assessed against asynchronous cultures of Plasmodium falciparum parasites replicating within human erythrocytes (Tables 1-3). As the chemical development of robenidine was not discussed in its original publication in 1970^4 and limited structural information is available regarding its mechanism of action,^10 profiling was guided primarily by in vitro potency against the P. falciparum D6 strain cultured in human erythrocytes as described above.
as §2
as §3, with “The commercial malaria drugs atovaquone and chloroquine were used as control drugs.” left out

P. falciparum strains = assay type: cell-based, Plasmodium falciparum
Procedure: as §6
All aminoguanidines synthesized were also evaluated against three multi-drug resistant P. falciparum strains (Dd2, Tm90-C2B, and A6) and for mammalian cell cytotoxicity.
as §1
as §3, with “The commercial malaria drugs atovaquone and chloroquine were used as control drugs.” left out

[2] = HepG2 cytotoxicity assay (resazurin); assay type: cell-based, human; conditions: human, HepG2 cells; HepG2, 24 hr drug, 24 hr recovery
Procedure: as §4, §5

[3] = system: P. falciparum Dd2 infected erythrocytes; assay: SYBR Green assay adapted to 48, 72 or 96 hr incubation; assay type: cell-based; conditions: Plasmodium falciparum, DD2, Erythrocyte
Procedure: Many drugs have activity dependent on their exposure time in addition to concentration, and antimalarial potency is frequently stage-specific. To determine whether the aminoguanidines acted by a time-dependent mechanism against malaria parasites, the SYBR Green activity assay was adapted to include additional incubation intervals. Two potent aminoguanidines, 16 and 21, were incubated with P. falciparum Dd2 infected erythrocytes for 48, 72, or 96 hours (FIG. 3). […] A shorter incubation time allows for less parasite growth for all drug conditions, producing data with proportionally greater variability or ‘noise.’ Conversely, longer incubation times reduce noise in the resulting data.
Aminoguanidine activity appears to be driven primarily by drug concentration rather than by lengthening drug incubation time.
as §3

[4] = Plasmodium falciparum, TM90, 72 h
[5] = Plasmodium falciparum, DD2, 72 h
[6] = Plasmodium falciparum, D6, Erythrocyte, 72 h

SMILES	IC50 (P. falciparum A6; Plasmodium falciparum, 72 h) [nM]	IC50 (P. falciparum Tm90-C2B; [4]) [nM]	IC50 (P. falciparum Dd2; [5]) [nM]	P. yoelii ED90 (Plasmodium yoelii) [mg/kg/day]	P. yoelii NRD (non-recrudescence dose, cure dose) (Plasmodium yoelii) [mg/kg/day]	IC50 (P. falciparum strain D6; [6]) [nM]	IC50 at 24 h [2] [nM]	other results
Cl.Cl.Cl.N=C(N)c1cccc(/C=N/N=C(\N)N/N=C/c2cccc(C(=N)N)c2)c1 [CGP 40215A]	–	–	–	–	–	–	–	IC50 value (P. falciparum): low micromolar; IC50 (T. brucei): 20000 nM; IC50 (T. cuzi): 20000 nM; IC50 (Leishmania donovani): 18000 nM
CCN(CC)CCCC(C)Nc1ccnc2cc(Cl)ccc12 (centres unmarked) [Chloroquine, reference compound]	16	297	70	–	–	–	–	cure in this model (Plasmodium yoelii): not curative; IC50 [1]: 181000 nM
N#Cc1cc(/C=N/NC(=N)N/N=C/c2ccc(F)c(C#N)c2)ccc1F [Compound 1]	14	16	12	0.28	>25	4	8000	cure in this model (Plasmodium yoelii): not curative; IC50 values against P. falciparum strains (P. falciparum strains; in words): single-digit nanomolar
N=C(N/N=C/c1ccc(OC(F)(F)F)cc1)N/N=C/c1ccc(OC(F)(F)F)cc1 [Compound 16]	52	114	83	3.7	12.5	39	11000	P. yoelii ED50 (Plasmodium yoelii): 1.2 mg/kg/day; IC50 ([3]; 48 h, read-out: IC50 Dd2 48 hr): 410 nM; IC50 ([3]; 72 h, read-out: IC50 Dd2 72 hr): 195 nM; IC50 ([3]; 96 h, read-out: IC50 Dd2 96 hr): 192 nM
N#Cc1cccc(/C=N/NC(=N)N/N=C/c2cccc(C#N)c2)c1 [Compound 21]	24	31	20	9.4	>25	7	7000	P. yoelii ED50 (Plasmodium yoelii): 7.1 mg/kg/day; IC50 ([3]; 48 h, read-out: IC50 Dd2 48 hr): 31 nM; IC50 ([3]; 72 h, read-out: IC50 Dd2 72 hr): 21 nM; IC50 ([3]; 96 h, read-out: IC50 Dd2 96 hr): 22 nM; effect on Hep2G activity ([1]; concentrations as high as 200 μM): no measurable effect
N=C(NN=Cc1ccc(C(=O)O)cc1)NN=Cc1ccc(C(=O)O)cc1 [Compound 29]	–	–	–	–	–	–	–	IC50 (P. falciparum strain D6; pan-sensitive strain, 72 hr, asynchronous cultures in human erythrocytes): > 5000 nM; activity against all tested P. falciparum strains (P. falciparum strains): inactive; IC50 (P. falciparum A6; mutant line resistant to respiratory antagonists, 72 hr): > 5000 nM; IC50 (P. falciparum Tm90-C2B; multi-drug resistant clinical isolate, also atovaquone resistant, 72 hr): > 5000 nM; IC50 [1]: > 200000 nM; IC50 (P. falciparum Dd2; multi-drug resistant strain, 72 hr): > 5000 nM
N=C(N/N=C/c1cccc(-n2cnnn2)c1)N/N=C/c1cccc(-n2cnnn2)c1 [Compound 34]	4790	> 5000	> 5000	–	–	1640	107000	activity against all tested P. falciparum strains (P. falciparum strains; D6, Dd2, Tm90-C2B, A6): inactive
N=C(N/N=C/c1ccc(-n2cnnn2)cc1)N/N=C/c1ccc(-n2cnnn2)cc1 [Compound 35]	> 5000	> 5000	> 5000	–	–	838	> 200000	activity against all tested P. falciparum strains (P. falciparum strains; D6, Dd2, Tm90-C2B, A6): inactive
